How the values were obtained:
[1] = Affinity constants of β-cyclodextrin dimers/trimers for guest compounds (competition with TNS, fluorescence spectroscopy); assay type: binding
Procedure: Binding constants can be determined in competition with 6-(p-toluidino)-2-naphthalenesulfonic acid (TNS). The measurement is performed by fluorescence spectroscopy according to Ruebner et al. (loc. cit.).
Due to the cyclodextrins being bonded on the secondary side, the cavities of the cyclodextrins are oriented towards each other. The cyclodextrins are preferably β-cyclodextrins. The distance between the cyclodextrin units is determined by selecting the spacer. Depending on the size of the compound to be enclosed, the spacer is selected such that the distance between the at least two cavities approximately matches the distance between two hydro-phobic groups of the pharmaceutically active substance. Preferred spacings are within a range of about 0.6 to 2 nm, more preferably in a range of about 0.8, 1.0, 1.2, 1.4, 1.6 and 1.8 nm.
Such rigid spacers can also be achieved by the use of appropriately functionalized (hetero)aromatics. For example, rigid spacers prevent too high a conformational flexibility, such as twisting of the two cyclodextrins involved in the binding. […] By the use of rigid spacers, affinity constants within a range of greater than 10^6, preferably greater than 10^7 and more preferably greater than 10^8 l/mol are achieved. Thus, rigid spacers are those which achieve correspondingly high stability constants of the complexes together with cyclodextrins involved in the binding and appropriate guest compounds.

[2] = Complex binding constant in competitive reaction with toluidinonaphthalenesulfonic acid; conditions: guest paclitaxel; competition with toluidinonaphthalenesulfonic acid; read-out: complex binding constant Ktaxol
Procedure: 250 mg (100 μmol) of the CD dimer di-β-CD(2N-A4C5A4) (see FIG. 5) was dissolved in 1 l of aqueous buffer (pH 7.35, Hepes 25 mM) at 60° C. and kept at this temperature with vigorous stirring. 8.5 mg of paclitaxel (10 μmol) was dissolved in 1 ml of dimethyl sulfoxide and added dropwise to the mixture with vigorous stirring. The mixture was kept at 60° C. for 24 hours with stirring, followed by cooling and freeze-drying the mixture.

[3] = spacer length 15-16 Å, guests paclitaxel, docetaxel

Substance: di-β-CD(—NH—(C2H4)—SH-[6-(β,γ)-CD-6]-SH—(C2H4)—NH—)
- Affinity constant, measured/estimated [1, 3]: 3 · 10^9 (trimer) l/mol

Substance: di-β-CD(—NH—(C2H4)—SH—[6-α-CD-6]—SH—(C2H4)—NH—)
- Affinity constant, measured/estimated ([1]; spacer length 13-14 Å, guests vinblastin, vincristin): ˜10^8 l/mol

Substance: di-β-CD(—NH—(C3H6)—NHCO—(C3H6)—CONH—(C3H6)—NH—) [A3C5A3]
- Affinity constant, measured/estimated ([1]; spacer length 11-12 Å, guests colchicine, colchemide): 10^6-10^7 l/mol

Substance: di-β-CD(—NH—(C4H8)—NHCO—(C3H6)—CONH—(C4H8)—NH—) [A4C5A4]
- Affinity constant, measured/estimated [1, 3]: 10^7 (dimer)- l/mol
- Kd [2]: 1400 nM

Substance: di-β-CD(—NH—(C8H16)—NH—) [octyl-α,ω-diamide]
- Affinity constant, measured/estimated ([1]; spacer length 7-8 Å, guests 3^1,8^1-(di-t-butylphenoxy)-porphyrinoids, (tamoxifene), phenytoin): 10^6-10^7 l/mol
